Data from patent US20240383870A1, “HETEROCYCLIC ALDEHYDE TRAPPING COMPOUNDS AND USES THEREOF” (Aldeyra Therapeutics, Inc., priority 2021, published 2024).

Legend:
Format in all cases: in vivo
Details in all cases: 100 mpk IP; LPS-challenged mice, plasma at 6.5 h; unpaired t-test vs vehicle
[1] = tested on: eotaxin; assay: Acute LPS-induced sepsis in C57BL/6 mice: eotaxin cytokine detection assay
[2] = tested on: G-CSF; assay: Acute LPS-induced sepsis in C57BL/6 mice: G-CSF cytokine detection assay
[3] = tested on: IL-3; assay: Acute LPS-induced sepsis in C57BL/6 mice: IL-3 cytokine detection assay
[4] = tested on: IL-10; assay: Acute LPS-induced sepsis in C57BL/6 mice: IL-10 cytokine detection assay
[5] = tested on: IFNγ; assay: Acute LPS-induced sepsis in C57BL/6 mice: IFNγ cytokine detection assay
[6] = tested on: IL-12(p70); assay: Acute LPS-induced sepsis in C57BL/6 mice: IL-12(p70) cytokine detection assay
From the text: FIG. 16 is a graph showing the results of an IL-12(p70) cytokine detection assay in samples collected from mouse subjects after administration of compounds of the present disclosure.
(§1) The primary objective of this study was to collect plasma samples of lipopolysaccharide (LPS) challenged C57BL/6 mice after dose of test compounds to provide a cytokine profile as impacted by prophylactic treatments. This study models acute sepsis, which is a systemic inflammatory syndrome initiated by Gram-negative and Gram-positive bacteria and fungi which infect the lungs, abdomen, bloodstream, and renal or genitourinary tracts. Sepsis patients ultimately die of multiorgan failure which is caused by extensive tissue hypo-oxygenation due to ongoing microvascular leakage, disseminated intravascular coagulation, compromised energy production, and metabolic alterations. Sepsis is characterized by an early systemic inflammatory response phase featuring symptoms, such as tachycardia, fever, hyperventilation, and activation of the complement and coagulation cascades. However, it is now appreciated that a compensatory anti-inflammatory response phase follows, characterized by neuroendocrine-mediated immunosuppression. Since these processes are the result of interaction between cells of inflammation and organs, investigation of the treatment of this syndrome requires the use of intact animal models. The use of ten mice per group allows useful statistical modelling of the results.
(§2) For the data shown in Table 2A, 103 mice (female, 18-22 gram, C57BL/6) were purchased from ENVIGO. The mice were housed in 20 cages of 5 mice per cage with 1 cage of 3 mice as extra. The cages had filter tops and autoclaved bedding, and the animals were placed in quarantine with daily inspection. The treatment groups are detailed in Table 2A below. 10 mice were included in each group. […] MC=methyl cellulose.
(§3) For the data shown in Table 2B, 185 mice (female, 18-22 gram, C57BL/6) were purchased from ENVIGO. The mice were housed in 37 cages of 5 mice per cage. The cages had filter tops and autoclaved bedding, and the animals were placed in quarantine with daily inspection. The treatment groups are detailed in Table 2B below. 10 mice were included in each group. The mice were dosed by oral gavage (P0) at 10 ml/kg as per the table below. MC=methyl cellulose.
(§4) At T=0 h, the mice were dosed with one of the test compounds as described in the above table.
(§5) At T=0.5 h, the mice were injected IP with 1.5 mg/kg […] (Sigma).
At T=6.5 h, all mice were anesthetized and exsanguinated into pre-chilled EDTA-treated tubes. The blood was processed to plasma which was stored in labeled 0.5 polypropylene snap-cap tubes (0.5 mL Eppendorf Safe-Lock Tubes (Fisher Scientific) at −80° C.
Preparation of vehicle: 1.0 gram of methyl cellulose (Sigma) was dissolved in 200 mL of water (USP purified) to make a solution of 0.5% methyl cellulose in water. Preparation of LPS solution: 6 mg of LPS (from Escherichia Coli 055:B5, Cat #L2880, Sigma Lot #057m4013) was dissolved in 20 ml of saline to give a LPS solution of 0.3 mg/ml. All mice were injected with 5 ml/kg (1.5 mg/kg) at the scheduled time by intraperitoneal injection.
A 32-plex cytokine panel was obtained from Eve Technologies. Each cytokine was assessed based against a 7 point curve range in duplicate. The average of the two replicate analyses was used for statistics. Unpaired t-tests were performed using Excel™ contrasting vehicle against each treatment group. One star indicates P<0.05. […]

[7] = tested on: IL-17; assay: Acute LPS-induced sepsis in C57BL/6 mice: IL-17 cytokine detection assay
From the text: FIG. 19 is a graph showing the results of an IL-17 cytokine detection assay in samples collected from mouse subjects after administration of compounds of the present disclosure.
as §1, §2, §3, §4, §5
At T=6.5 h, all mice were anesthetized and exsanguinated into pre-chilled EDTA-treated tubes. […]
A 32-plex cytokine panel was obtained from Eve Technologies. Each cytokine was assessed based against a 7 point curve range in duplicate. […]

[8] = tested on: MIP-1a(CCL3); assay: Acute LPS-induced sepsis in C57BL/6 mice: MIP-1a(CCL3) cytokine detection assay
[9] = tested on: IL-15; assay: Acute LPS-induced sepsis in C57BL/6 mice: IL-15 cytokine detection assay
[10] = tested on: IL-7; assay: Acute LPS-induced sepsis in C57BL/6 mice: IL-7 cytokine detection assay

CC(O)(c1sc2ccccc2c1N)C(F)(F)F (stereo not shown) [Compound I-1, 2-(3-aminobenzo[b]thiophen-2-yl)-1,1,1-trifluoropropan-2-ol]
Eotaxin: significant cytokine change vs. vehicle [1]: * (One star indicates P<0.05)
G-CSF: significant cytokine change vs. vehicle [2]: * (One star indicates P<0.05)
IL-3: significant cytokine change vs. vehicle [3]: **** (Four stars indicates P<0.0001)
IL-10: significant cytokine change vs. vehicle [4]: **** (Four stars indicates P<0.0001)
IFNy: significant cytokine change vs. vehicle [5]: **** (Four stars indicates P<0.0001)
IL-12 (p70): significant cytokine change vs. vehicle [6]: * (One star indicates P<0.05)
IL-17: significant cytokine change vs. vehicle [7]: *** (Three stars indicates P<0.001)
MIP-1a: significant cytokine change vs. vehicle [8]: ** (Two stars indicates P<0.01)
IL-15: significant cytokine change vs. vehicle [9]: ** (Two stars indicates P<0.01)
IL-7: significant cytokine change vs. vehicle [10]: * (One star indicates P<0.05)
